# Assay results from US4076702A, “Dipeptide derivatives and their production” (Shionogi & Co., Ltd., priority 1974, dated 1978).
# How the values were obtained:
# DS male mice [1] = assay: Taming activity (inhibition of electroshock-induced fighting response); type: in vivo; settings: compound given 60 minutes prior, 5 pairs per group; for ED50: Mus musculus
# Protocol: This test was measured on DS male mice. […] These pairs of mice were selected in the morning and used for drug test in the afternoon. The test compound was administered to both mice of the pairs 60 minutes prior to the experiment. Results were obtained as the mean percentage of inhibition of fighting response in a group of 5 pairs and shown by ED50 [Tedeschi, et al.: J. Pharmacol Exp. Thev., 125, 28-34 (1959)].
# DS male mice [2] = assay: Rotarod performance activity; type: in vivo; settings: fall from rod within less than 2 minutes counted as effective, 10 mice per dose; for ED50: Mus musculus
# Protocol: (3) Rotarod performance activity
# This test was measured on DS male mice. The mouse was put on a scraped rod of wood, 3 cm in diameter, turning at the rate of five rotations per minute. The mice that could remain on the rod for three or more minutes in successive trials were selected and placed in a group of 10 mice for each dose. If the mouse fell down from the rod within less than 2 minutes, the test compound was considered to be effective. Results were shown by ED50 [Dunham, et al.: J. Am. Pharm. Assoc., 46, 208 (1957)].
# DS male mice [3] = assay: Anti-pentylenetetrazol activity; type: in vivo; settings: test compound orally 60 minutes prior to 125 mg/kg s.c. pentylenetetrazol, complete protection against mortality, observed two hours; for ED50: Mus musculus
# Excerpt: (1) Anti-pentylenetetrazol activity:
# The convulsions were disregarded.
# DS male mice [4] = settings: oral single dose, observed 72 hours, Bliss method
# Protocol: The test compound was orally administered to DS male mice in different single doses. For each dose, 10 mice were used, their weight ranging from 20 to 23 grams. […] The mortality was calculated by the Bliss method [Bliss: Ann.
SMILES,Taming activity ED50 (DS male mice [1]) [mg/kg],Rotarod performance ED50 (DS male mice [2]) [mg/kg],"Anti-pentylenetetrazol activity, ED50 (DS male mice [3]) [mg/kg]",Acute toxicity LD50 (DS male mice [4]) [mg/kg],ED50 (DS male mice [1]) [mg/kg],ED50 (DS male mice [2]) [mg/kg],ED50 (DS male mice [3]) [mg/kg]
"CN(C(=O)CNC(=O)CN)c1ccc(Cl)cc1C(=O)c1ccccc1 [Compound No. 1, 2-benzoyl-4-chloro-N-methyl-N^α -glycyl-glycinanilide]",10.5,36.6,1.0,1309,–,–,–
"CN(C(=O)CNC(=O)CN)c1ccc(Cl)cc1C(=O)c1ccccc1Cl.O [Compound No. 2, 2-o-chlorobenzoyl-4-chloro-N-methyl-N^α -glycyl-glycinanilide hydrate]",3.0,27.7,0.58,1255,–,–,–
"CN(C(=O)CNC(=O)CN)c1ccc(Cl)cc1C(=O)c1ccccc1F.Cl [Compound No. 3, 2-o-fluorobenzoyl-4-chloro-N-methyl-N^α -glycyl-glycinanilide hydrochloride]",1.6,17.0,0.33,> 1000,–,–,–
"CNC1=Nc2ccc(Cl)cc2C(c2ccccc2)=[N+]([O-])C1 [Compound No. 4, Chlordiazepoxide, reference compound]",–,–,–,1090,24,50,3.7
"CN1C(=O)CN=C(c2ccccc2)c2cc(Cl)ccc21 [Compound No. 5, Diazepam, reference compound]",–,–,–,–,6,9.03,1.19
